Experiments:
[1] = tested on: APO A1 protein; assay: Immunofluorescence staining of APO A1 protein in CaCo2 cells; type: cell-based, human; conditions: 5 and 10 μM, 36 hours of treatment
Procedure: (§1) Human hepatoblastoma cells (HepG2) and intestinal cells (CaCo2) were obtained from the American Type Culture Collection (Rockville, Md.). Cells were grown in Minimum Essential Medium (MEM) (Gibco) supplemented with 2 mM glutamine, MEM vitamin solution and 10% fetal bovine serum (FBS) for HepG2 and 20% FBS (Gibco) for CaCo2 cells. All cells were incubated in a 95% air/5% CO2 atmosphere.
(§2) The CaCo2 or HepG2 cells were grown in the defined media and, for promoter assay studies, transfected with the reporter construct of interest. Cells were then left in serum-free media for 8-12 hours after which time resveratrol was added to media to give a final concentration of the agent as stated in the figure legends. The cells were exposed to the agent for varying periods of time, harvested and then the parameter of interest, either APO A1 protein or promoter activity, was assayed.
HepG2 and CaCo2 cells were grown on cover slips. Cover slips on which CaCo2 cells were grown were also coated with fibronectin (Calbiochem). […] The FITC-labeled ApoA1 peptide in cells was visualized using a Zeiss fluorescence microscope (Zeiss, Dusseldorf, Germany) with FITC excitation and emission wavelengths of 488 and 520 nm. […]

[2] = tested on: human APO A1 promoter from −474 to −7; assay: APO A1 promoter activity, pA1.474-Luc reporter transiently transfected in CaCo2 cells; type: cell-based
Procedure: (§3) The plasmids created for the studies contained the human APO A1 promoter from −474, −375, −325, −235, −190 to −170 fused to the firefly luciferase gene in the vector, pGL3 (Promega). Insertion of the promoter DNA was verified by nucleotide sequence analysis. Plasmid DNA was prepared from bacteria containing the desired clone and isolated using Qiagen kits according to manufacturer's instructions and used in the tansfection studies or to create a stable cell line.
as §2
(§4) For transient transfections cells were seeded onto six well plates and grown to 30-40% confluence, The cells were then transfected using 5 μl of Superfect (Qiagen) and up to one microgram of the plasmid of interest in 100 μl of serum and antibiotic free MEM. The solution was incubated for 10 minutes at room temperature. Media was then removed from the cells to be transfected and 1 ml of media was added to the DNA-Superfect mixture before being applied to the cells. The cells were then exposed to the DNA for 2 hours at 37° C./5% CO2 and then the media containing DNA was removed and replaced with serum free MEM media allowed to grow over night prior to harvest.
Cells were transfected with Luciferase plasmid of interest (see above) and left to recover overnight in serum poor media. […] Luciferase activity was then determined and expressed relative to the protein concentration of that sample.
Next the CaCo2 cells were exposed to varying concentrations of resveratrol from 0 to 15 μM. […] At the end of the treatment, the cells were harvested and the Luc-activity measured. […]

[3] = tested on: APO A1 promoter; assay: APO A1 promoter deletion constructs fused to Luc, transient transfection in CaCo2 cells; type: cell-based, human; conditions: 5 μM, minimum of 16 hours
Procedure: as §3, §4
(§5) Cells were transfected with Luciferase plasmid of interest (see above) and left to recover overnight in serum poor media. These cells or those that were permanently transfected with the luciferase promoter were then treated with varying concentrations of resveratrol for stated periods of time. As above, RSV-beta-Gal was co-transfected as a control to normalize for DNA uptake. Cells were then harvested and suspended in reporter lysis buffer (Promega). A 10 μl aliquot of this lysate was used for determination of luciferase activity, and 5 μl were used for total protein determination (Bradford Assay, Bio-Rad reagent). Luciferase activity was then determined and expressed relative to the protein concentration of that sample.
In order to identify the potential motif(s), separate constructs containing progressively smaller amounts of APO A1 DNA were fused to the Luc gene. The activity of each construct was tested by transient transfection assay in CaCo2 cells and than treated with 5 μM resveratrol for a minimum of 16 hours. […] The number at the bottom of each set of columns denotes the 5′ location of the fragment and the 3′ end is common to all deletional clones at −7. […] In contrast, further deletion with the remaining −170 to −7 fragment of the promoted abolished the resveratrol induction of the promoter. We discovered the resveratrol responsive motif in the APO A1 DNA must span nucleotides −190 to −170.

[4] = tested on: APO A1 protein; assay: Western blot of APO A1 protein in spent media from CaCo2 cells; type: cell-based, human; conditions: 5 or 10 p,M, 36 hours
Procedure: (§6) Media or cells were harvested from untreated and treated HepG2/CaCo2 culture dishes at various time points and stored at −80° C. when required. For experiments in which media was collected for western blotting, cells from these dishes were trypsinized (Gibco) and a 100 μl sample of cells was used to determine the percentage of dead cells by counting live/dead cell ratios using […] staining. The remaining cells were then assessed for total DNA content using method described by Maniatis, (Cloning Manual). DNA content per dish was then utilized along with ratio of live/dead cells to normalize the amount of media to be separated by polyacrylamide gel electrophoresis. For experiments requiring western blot of whole cell lysates, cells were harvested and lysed using reporter lysis reagent (Promega) and cell debris was spun down at 13,000 rpm for 5 minutes. […]
This to experiment sought to measure whether resveratrol stimulation of transcriptional activity of the promoter in the CaCo2 cells increased the abundance of the APO A1 protein, ultimately responsible for the antiatherogenic activity of the gene. […] Longer exposure of the cells to resveratrol was utilized to allow adequate time for the APO A1 protein to be secreted into the media from the CaCo2 cells, and detected. […]

[5] = tested on: APO A1 protein; assay: Immunofluorescence staining of APO A1 protein in Hep G2 cells; type: cell-based, human; conditions: 5 or 10 μM
Procedure: as §1
The CaCo2 or HepG2 cells were grown in the defined media and, for promoter assay studies, transfected with the reporter construct of interest. Cells were then left in serum-free media for 8-12 hours after which time resveratrol was added to media to give a final concentration of the agent as stated in the figure legends. […]
HepG2 and CaCo2 cells were grown on cover slips. […] The FITC-labeled ApoA1 peptide in cells was visualized using a Zeiss fluorescence microscope (Zeiss, Dusseldorf, Germany) with FITC excitation and emission wavelengths of 488 and 520 nm. […]
Since the APO A1 gene is expressed in both liver and small intestine, the following studies examine the ability of resveratrol to affect expression of the gene in liver cells. […] Hep G2 cells were viewed under phase contrast or fluorescence microscopy following treatment with or without resveratrol and immunostaining for their content of APO A1 protein.

[6] = tested on: APO A1 promoter; assay: APO A1 promoter activity, pA1.474-Luc reporter transiently transfected in Hep G2 cells; type: cell-based, human
Procedure: as §3, §2, §4
Cells were transfected with Luciferase plasmid of interest (see above) and left to recover overnight in serum poor media. These cells or those that were permanently transfected with the luciferase promoter were then treated with varying concentrations of resveratrol for stated periods of time. As above, RSV-beta-Gal was co-transfected as a control to normalize for DNA uptake. […] Luciferase activity was then determined and expressed relative to the protein concentration of that sample. […]

[7] = tested on: APO A1 promoter; assay: APO A1 promoter activity, Hep G2 cells permanently transfected with pA1.474-Luc; type: cell-based, human; conditions: 10 μM resveratrol
Procedure: HepG2 cells were also permanently transfected with 474-luciferase using a co-transfection method. Hep G2 cells are grown in MEM (Gibco) and 10% fetal calf serum (Gibco) and then co-transfected with 474-Luc along with another plasmid that carries neomycin resistance.
as §5
To assay for promoter activity in Hep G2 cells, the reporter construct pA1.474-Luc was inserted into the human hepatoma, Hep G2, cells along with pRSV-β-galactosidase as a monitor for transfection efficiency using conventional molecular biology techniques as later described. The transfected cells were exposed to varying concentrations of resveratrol from 0 to 100 μM for 16 hours. […]

[8] = tested on: APO A1 protein; assay: Western blot of APO A1 protein in spent media from Hep G2 cells; type: cell-based, human; conditions: 5 or 10 p,M, 36 hours
Procedure: as §6, with “minutes. An aliquot of the supernatant was then used to determine amount of protein per samples were using Bradford assay (Rio-Rad reagent). Equal amounts of protein from all samples were then separated by polyacrylamide gel electrophoresis as was done with media.” for “minutes.”
To measure whether resveratrol stimulation of the APO A1 promoter in the Hep G2 cells also increases the abundance of the protein, APO A1 secreted into the media was assessed following treatment with the compound. […]

## Oc1ccc(/C=C/c2cc(O)cc(O)c2)cc1 [resveratrol, trans-3,5,4′-trihydroxystilbene]
[1]
  abundance of APO A1 signal (immunohistochemical staining): increase in the abundance of APO A1 signal
[2]; 5 μM, time points 4 to 24 hours
  optimal time point for stimulatory effect on APO A1 promoter: around 16 hours
[2]; 16 hours, resveratrol 5 to 7.5 μM
  maximal stimulation of APO A1 promoter activity (Luc-activity): 2.5 fold
[2]; 16 hours, tested 0 to 15 μM
  resveratrol concentration causing maximal stimulation of APO A1 promoter activity: 5 to 7.5 µM
[3]
  increase in promoter activity, −190 to −7 fragment: 2.5 fold
  increase in promoter activity, −235 to −7 fragment: 2.5 fold
  induction of promoter activity, full-length (−474 to −7) promoter: 2.5 fold
  induction of promoter, −170 to −7 fragment: abolished
[4]
  abundance of APO A1 protein in spent media (western blot): marked increase
[5]
  fluorescence for APO A1 signal (immunostaining): increase in fluorescence
[6]; 16 hours
  concentration at which resveratrol becomes inhibitory on APO A1 promoter activity: ≥ 50 µM
[6]; 16 hours, 5 to 10 μM resveratrol
  increase in Luc-activity (APO A1 promoter): 3 fold
[6]; 16 hours, 15, 25, 50, 75 or 100 μM
  decrease in Luc-activity: 50%
[7]
  maximal increase of Luc-activity: 4 fold
[8]
  abundance of APO A1 protein in spent media (western blot): marked increase

— patent US20070099826A1, “Treatment of diseases associated with the egr-1 enhancer element” (priority 2003, published 2007)
